Experimental data published in patent US8916551B2, “Heterocyclic compound and use thereof” (Takeda Pharmaceutical Company Limited, priority 2010, dated 2014).

Legend:
[1] = biological target: T1, AMPA receptor (human GluR1 flip/stargazin expressed in CHO-K1 cells) (Homo sapiens, UniProt P42261); test: AMPA receptor function enhancing activity using calcium influx as index; type: cell-based; settings: 100% = 3 mM glutamic acid + 300 μM cyclothiazide, 0% = 3 mM glutamic acid only
T1 construct: expressed in transfected cells; host or cells: CHO-K1
Procedure, shortened: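 CHO-K1 clone stably co-expressing human GluR1 flip and stargazin, loaded with Calcium 4 dye plus probenecid. Compound at 30 μM was added with glutamate (3 mM final) and fluorescence change followed over 3 min. Activity is expressed as % of the 3 mM glutamate plus 300 μM cyclothiazide response, with glutamate alone as 0%.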

[2] = test compound 30 μM with glutamic acid final 3 mM, change in fluorescence in 3 min
[3] = test compound 30 μM with 3 mM glutamic acid, change in fluorescence level in 3 min

T1 sequence (P42261 19-906 isoform P42261-2 limits assumed): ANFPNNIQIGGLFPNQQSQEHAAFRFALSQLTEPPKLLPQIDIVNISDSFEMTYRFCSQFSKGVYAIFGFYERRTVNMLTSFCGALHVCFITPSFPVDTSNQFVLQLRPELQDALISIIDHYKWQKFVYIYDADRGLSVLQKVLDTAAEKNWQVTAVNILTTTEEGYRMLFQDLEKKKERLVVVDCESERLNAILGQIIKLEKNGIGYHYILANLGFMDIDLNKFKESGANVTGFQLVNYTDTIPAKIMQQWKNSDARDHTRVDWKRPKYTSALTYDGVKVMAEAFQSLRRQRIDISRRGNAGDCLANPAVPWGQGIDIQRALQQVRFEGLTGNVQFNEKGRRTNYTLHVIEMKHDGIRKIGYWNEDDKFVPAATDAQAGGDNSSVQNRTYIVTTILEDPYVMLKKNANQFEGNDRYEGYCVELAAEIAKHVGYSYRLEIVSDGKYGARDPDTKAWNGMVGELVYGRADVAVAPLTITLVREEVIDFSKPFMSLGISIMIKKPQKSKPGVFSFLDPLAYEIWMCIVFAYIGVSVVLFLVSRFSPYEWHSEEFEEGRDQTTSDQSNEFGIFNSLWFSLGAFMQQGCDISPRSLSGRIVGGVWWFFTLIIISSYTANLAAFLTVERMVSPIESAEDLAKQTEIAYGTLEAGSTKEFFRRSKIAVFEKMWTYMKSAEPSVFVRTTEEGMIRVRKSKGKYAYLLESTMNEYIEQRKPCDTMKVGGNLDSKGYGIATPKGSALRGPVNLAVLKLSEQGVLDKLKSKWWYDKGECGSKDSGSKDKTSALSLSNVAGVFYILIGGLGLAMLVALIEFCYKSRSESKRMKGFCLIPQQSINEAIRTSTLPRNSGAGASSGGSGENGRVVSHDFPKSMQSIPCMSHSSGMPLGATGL
T1 sequence (Q9Y698 whole entry partner): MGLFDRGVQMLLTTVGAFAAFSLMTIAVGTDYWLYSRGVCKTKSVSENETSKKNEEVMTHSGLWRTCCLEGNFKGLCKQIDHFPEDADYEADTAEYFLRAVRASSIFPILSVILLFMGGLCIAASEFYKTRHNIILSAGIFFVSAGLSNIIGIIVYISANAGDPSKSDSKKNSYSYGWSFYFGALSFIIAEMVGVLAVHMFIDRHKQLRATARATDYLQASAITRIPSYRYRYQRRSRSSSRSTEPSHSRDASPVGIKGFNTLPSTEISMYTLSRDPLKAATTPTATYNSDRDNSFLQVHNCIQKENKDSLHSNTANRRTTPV

SMILES | activity (%) [1, 2] | activity (%) [1, 3] | also measured
O=S1(=O)CCN2C=CC=C(c3ccc(Oc4ccc(C(F)(F)F)cc4)cc3)C2=N1 [Example 200, 9-{4-[4-(trifluoromethyl)phenoxy]phenyl}-3,4-dihydropyrido[2,1-c][1,2,4]thiadiazine 2,2-dioxide] | – | – | melting point: 253 to 255 °C
CC(C)Oc1ccc(C2CCCN3CCS(=O)(=O)N=C23)cc1 (stereo not shown) [Example 40, 9-[4-(1-methylethoxy)phenyl]-3,4,6,7,8,9-hexahydropyrido[2,1-c][1,2,4]thiadiazine 2,2-dioxide] | – | – | melting point: 191 to 192 °C
O=S1(=O)CCN2CCCC(c3ccc(Oc4ccc(Cl)cc4)cc3)C2=N1 (stereo not shown) [Example 150, 9-[4-(4-chlorophenoxy)phenyl]-3,4,6,7,8,9-hexahydropyrido[2,1-c][1,2,4]thiadiazine 2,2-dioxide] | – | – | melting point: 183 to 185 °C
CCCCOc1ccc(C2=CC=CN3CCS(=O)(=O)N=C23)cc1 [Example 209, 9-(4-butoxyphenyl)-3,4-dihydropyrido[2,1-c][1,2,4]thiadiazine 2,2-dioxide] | – | – | melting point: 230 to 232 °C
Cc1ccc(-c2ccc(C3CCCN4CCS(=O)(=O)N=C34)cc2)cc1 (stereo not shown) [Example 105, 9-(4′-methylbiphenyl-4-yl)-3,4,6,7,8,9-hexahydropyrido[2,1-c][1,2,4]thiadiazine 2,2-dioxide] | 87% | – | –
O=S1(=O)CCN2CCCC(c3ccc(Oc4ccccc4Cl)cc3)C2=N1 (stereo not shown) [Example 433, 9-[4-(2-chlorophenoxy)phenyl]-3,4,6,7,8,9-hexahydropyrido[2,1-c][1,2,4]thiadiazine 2,2-dioxide] | 55% | – | –
O=S1(=O)CCN2CCCC(c3ccc(OC(F)(F)F)cc3)C2=N1 (stereo not shown) [Example 179, 9-[4-(trifluoromethoxy)phenyl]-3,4,6,7,8,9-hexahydropyrido[2,1-c][1,2,4]thiadiazine 2,2-dioxide] | – | 69% | –
CC1CC(c2ccc(Oc3cccc(C(C)(F)F)c3)cc2)C2=NS(=O)(=O)CCN2C1 (racemic) [Example 172, 9-{4-[3-(1,1-difluoroethyl)phenoxy]phenyl}-7-methyl-3,4,6,7,8,9-hexahydropyrido[2,1-c][1,2,4]thiadiazine 2,2-dioxide] | – | 74% | –
O=S1(=O)CCN2CCCC(COc3ccc4c(c3)CCCC4)C2=N1 (stereo not shown) [Example 303, 9-[(5,6,7,8-tetrahydronaphthalen-2-yloxy)methyl]-3,4,6,7,8,9-hexahydropyrido[2,1-c][1,2,4]thiadiazine 2,2-dioxide] | 82% | – | –
CC(F)(F)c1cccc(Oc2ccc(C3CCCN4CCS(=O)(=O)N=C34)cc2)c1 (stereo not shown) [Example 158, 9-{4-[3-(1,1-difluoroethyl)phenoxy]phenyl}-3,4,6,7,8,9-hexahydropyrido[2,1-c][1,2,4]thiadiazine 2,2-dioxide] | – | 76% | –
Cc1cccc(Oc2ccc(C3CCCN4CCS(=O)(=O)N=C34)cc2)c1 (stereo not shown) [Example 118, 9-[4-(3-methylphenoxy)phenyl]-3,4,6,7,8,9-hexahydropyrido[2,1-c][1,2,4]thiadiazine 2,2-dioxide] | 79% | – | –
O=S1(=O)CCN2CCCC(c3ccc(Oc4ccccc4C(F)(F)F)cc3)C2=N1 (stereo not shown) [Example 86, 9-{4-[2-(trifluoromethyl)phenoxy]phenyl}-3,4,6,7,8,9-hexahydropyrido[2,1-c][1,2,4]thiadiazine 2,2-dioxide] | 67% | – | –
Cc1cc(Oc2ccc(C3CCCN4CCS(=O)(=O)N=C34)cc2)ccc1F (stereo not shown) [Example 113, 9-[4-(4-fluoro-3-methylphenoxy)phenyl]-3,4,6,7,8,9-hexahydropyrido[2,1-c][1,2,4]thiadiazine 2,2-dioxide] | 86% | – | –
CC1CC(c2ccc(Oc3cccc(C(C)(F)F)c3)cc2)C2=NS(=O)(=O)CCN2C1 (stereo not shown) [Example 171, 9-{4-[3-(1,1-difluoroethyl)phenoxy]phenyl}-7-methyl-3,4,6,7,8,9-hexahydropyrido[2,1-c][1,2,4]thiadiazine 2,2-dioxide] | – | 87% | –
COc1ccc2cc(C3CCCN4CCS(=O)(=O)N=C34)ccc2c1 (stereo not shown) [Example 127, 9-(6-methoxynaphthalen-2-yl)-3,4,6,7,8,9-hexahydropyrido[2,1-c][1,2,4]thiadiazine 2,2-dioxide] | 79% | – | –
O=S1(=O)CCN2CCCC(c3ccc(C4(c5ccccc5)CCC4)cc3)C2=N1 (stereo not shown) [Example 321, 9-[4-(1-phenylcyclobutyl)phenyl]-3,4,6,7,8,9-hexahydropyrido[2,1-c][1,2,4]thiadiazine 2,2-dioxide] | 64% | – | –
O=S1(=O)CCN2CCCC(c3ccc(-c4ccccc4)s3)C2=N1 (stereo not shown) [Example 57, 9-(5-phenylthiophen-2-yl)-3,4,6,7,8,9-hexahydropyrido[2,1-c][1,2,4]thiadiazine 2,2-dioxide] | 86% | – | –

Second part, led by results:

activity (%) [1, 2] | activity (%) [1, 3] | SMILES | also measured
– | 81% | O=S1(=O)CCN2C=CC=C(c3ccc(Oc4ccc(C(F)(F)F)nc4)cc3)C2=N1 [Example 254, 9-(4-{[6-(trifluoromethyl)pyridin-3-yl]oxy}phenyl)-3,4-dihydropyrido[2,1-c][1,2,4]thiadiazine 2,2-dioxide] | –
65% | – | O=S1(=O)CCN2C=CC=C(c3ccc(OCc4cccc(F)c4)cc3)C2=N1 [Example 82, 9-{4-[(3-fluorobenzyl)oxy]phenyl}-3,4-dihydropyrido[2,1-c][1,2,4]thiadiazine 2,2-dioxide] | –
99% | – | CC(C)(c1ccccc1)c1ccc(C2=CC=CN3CCS(=O)(=O)N=C23)cc1 [Example 325, 9-[4-(1-methyl-1-phenylethyl)phenyl]-3,4-dihydropyrido[2,1-c][1,2,4]thiadiazine 2,2-dioxide] | –
– | 88% | O=S1(=O)CCN2C=CC=C(c3ccc(-n4cccn4)cc3)C2=N1 [Example 239, 9-[4-(1H-pyrazol-1-yl)phenyl]-3,4-dihydropyrido[2,1-c][1,2,4]thiadiazine 2,2-dioxide] | –
84% | – | Cc1cc(C2=CC=CN3CCS(=O)(=O)N=C23)ccc1-c1ccccc1 [Example 101, 9-(2-methylbiphenyl-4-yl)-3,4-dihydropyrido[2,1-c][1,2,4]thiadiazine 2,2-dioxide] | –
– | 80% | O=S1(=O)CCN2C=CC=C(c3ccc(OCC(F)(F)F)cc3)C2=N1 [Example 264, 9-[4-(2,2,2-trifluoroethoxy)phenyl]-3,4-dihydropyrido[2,1-c][1,2,4]thiadiazine 2,2-dioxide] | –
78% | – | COc1cccc(Oc2ccc(C3=CC=CN4CCS(=O)(=O)N=C34)cc2)c1 [Example 90, 9-[4-(3-methoxyphenoxy)phenyl]-3,4-dihydropyrido[2,1-c][1,2,4]thiadiazine 2,2-dioxide] | –
– | 76% | O=C1CCC(Oc2ccc(C3=CC=CN4CCS(=O)(=O)N=C34)cc2)CC1 [Example 244, 4-[4-(2,2-dioxido-3,4-dihydropyrido[2,1-c][1,2,4]thiadiazin-9-yl)phenoxy]cyclohexanone] | –
86% | – | O=S1(=O)CCN2C=CC=C(c3ccc(OC4CC4)cc3)C2=N1 [Example 70, 9-[4-(cyclopropyloxy)phenyl]-3,4-dihydropyrido[2,1-c][1,2,4]thiadiazine 2,2-dioxide] | –
80% | – | O=S1(=O)CCN2C=CC=C(c3ccc4ccccc4c3)C2=N1 [Example 46, 9-naphthalen-2-yl-3,4-dihydropyrido[2,1-c][1,2,4]thiadiazine 2,2-dioxide] | –
– | 84% | O=S1(=O)CCN2C=CC=C(c3ccc(-c4ccccc4)nc3)C2=N1 [Example 282, 9-(6-phenylpyridin-3-yl)-3,4-dihydropyrido[2,1-c][1,2,4]thiadiazine 2,2-dioxide] | –
85% | – | CSc1ccc(C2=CC=CN3CCS(=O)(=O)N=C23)cc1 [Example 408, 9-[4-(methylsulfanyl)phenyl]-3,4-dihydropyrido[2,1-c][1,2,4]thiadiazine 2,2-dioxide] | –
69% | – | CCc1cccc(Oc2ccc(C3=CC=CN4CCS(=O)(=O)N=C34)cc2)c1 [Example 130, 9-[4-(3-ethylphenoxy)phenyl]-3,4-dihydropyrido[2,1-c][1,2,4]thiadiazine 2,2-dioxide] | –
– | 90% | CCCCn1ccc2cc(C3=CC=CN4CCS(=O)(=O)N=C34)ccc21 [Example 292, 9-(1-butyl-1H-indol-5-yl)-3,4-dihydropyrido[2,1-c][1,2,4]thiadiazine 2,2-dioxide] | –
51% | – | O=S1(=O)CCN2C=CC=C(c3ccc(O)cc3)C2=N1 [Example 87, 4-(2,2-dioxido-3,4-dihydropyrido[2,1-c][1,2,4]thiadiazin-9-yl)phenol] | –
– | 86% | O=S1(=O)CCN2C=C(Cl)C=C(c3ccc(Oc4ccc(C(F)(F)F)nc4)cc3)C2=N1 [Example 256, 7-chloro-9-(4-{[6-(trifluoromethyl)pyridin-3-yl]oxy}phenyl)-3,4-dihydropyrido[2,1-c][1,2,4]thiadiazine 2,2-dioxide] | –
85% | – | CC(F)(F)c1ccc(Oc2ccc(C3=CC=CN4CCS(=O)(=O)N=C34)cc2)cc1 [Example 323, 9-{4-[4-(1,1-difluoroethyl)phenoxy]phenyl}-3,4-dihydropyrido[2,1-c][1,2,4]thiadiazine 2,2-dioxide] | –
74% | – | O=S1(=O)CCN2C=CN=C(c3ccc(-c4ccccc4)c(F)c3)C2=N1 [Example 344, 9-(2-fluorobiphenyl-4-yl)-3,4-dihydropyrazino[2,1-c][1,2,4]thiadiazine 2,2-dioxide] | –
– | 84% | O=S1(=O)CCN2C=CC=C(c3ccc(Oc4ccccc4C(F)(F)F)cc3)C2=N1 [Example 266, 9-{4-[2-(trifluoromethyl)phenoxy]phenyl}-3,4-dihydropyrido[2,1-c][1,2,4]thiadiazine 2,2-dioxide] | –
71% | – | Cc1cc(C2CCCN3CCS(=O)(=O)N=C23)ccc1-c1ccccc1 (stereo not shown) [Example 102, 9-(2-methylbiphenyl-4-yl)-3,4,6,7,8,9-hexahydropyrido[2,1-c][1,2,4]thiadiazine 2,2-dioxide] | –
